This passage reports IC50 results from patent publication US8455497B2, “Inhibitors of aspartyl protease” (Vertex Pharmaceuticals Incorporated, priority 1999, dated 2013).

The subject of one assay is HIV-1 (strain IIIB). The assay is described as follows: Antiviral activity assay in MT4 cells (propidium iodide based). It is filed as cell-based. To be noted: wild type HIV-1 virus, MT4 cells, read-out: Wildtype virus - IC50. The gist of the method: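 MT4 cells infected with HIV-1 IIIB (MOI 100×TCID50, 1 hr, 37°C), diluted 6-fold into wells with serially diluted compound, incubated 5 days. Cells lysed with Nonidet-40; DNA content per well estimated by propidium iodide staining as the viability read-out, with mock-infected controls.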

Assay [1] concerns D545701-14 multi protease inhibitor resistant virus. The assay is described as follows: Anti-viral activity against resistant virus D545701-14 in MT4 cells. In kind it is cell-based, HIV-1. The method, then:
(§1) Exponentially growing MT4 cells were harvested and centrifuged at 1000 rpm for 10 min in a Jouan centrifuge (model CR 4 12). […] Cell aliquots were infected by the addition of HIV-1 (strain IIIB) diluted to give a viral multiplicity of infection of 100×TCID50. […] Cell infection was allowed to proceed for 1 hr at 37° in a tissue culture incubator with humidified 5% CO2 atmosphere. After the 1 hr incubation the virus/cell suspensions were diluted 6-fold with fresh medium, and 125 μl of the cell suspension was added to each well of the plate containing pre-diluted compound. Plates were then placed in a tissue culture incubator with humidified 5% CO2 for 5 days. At the end of the incubation period, 27 μl of 5% Nonidet-40 was added to each well of the incubation plate. After thorough mixing with a Costar multitip pipetter, 60 μl of the mixture was transferred to filter-bottomed 96-well plates. The plates were analyzed in an automated assay instrument (Screen Machine, Idexx Laboratories). The assay makes use of a propidium iodide dye to estimate the DNA content of each well.
(§2) Anti-Viral Activity Against Resistant Viruses
EP13 and DS45701, two multi protease inhibitor resistant viruses were used to assess potency against mutant viruses. These viruses contain the following mutations relative to the consensus sequence of wild type virus: […]

The subject of assay [2] is EP13 multi protease inhibitor resistant virus. Description: Anti-viral activity against resistant virus EP13 in MT4 cells. In kind it is cell-based, HIV-1. How it is done:
as §1, §2
EP13 and DS45701, two multi protease inhibitor resistant viruses were used to assess potency against mutant viruses. These viruses contain the following mutations relative to the consensus sequence of wild type virus:
EP13: Protease amino acid sequence: M46I, L63P, A71V, V82F/L, I84V; No reverse transcriptase mutations.

Setting [3] is: Human immunodeficiency virus 1, IIIB.
The mark [4] stands for this setting: Human immunodeficiency virus 1, MT4, read-out: EP13 mutant IC50, EP13 multi protease inhibitor resistant virus, MT4 cells.
Setting [5] is: Human immunodeficiency virus 1, MT4, read-out: D545701-14 mutant - IC50, D545701-14 multi protease inhibitor resistant virus, MT4 cells.
Where [6] appears, read: D545701-14 multi protease inhibitor resistant virus, MT4 cells, read-out: D545701-14 mutant - IC50.
Where [7] appears, read: EP13 multi protease inhibitor resistant virus, MT4 cells, read-out: EP13 mutant IC50.

Where two headings read alike, the source gives them in different places. Bounds are passed on as bounds.

Take `CC(C)CN(C[C@@H](O)[C@H](Cc1ccc(OCCCc2ccccc2)cc1)NC(=O)O[C@H]1CO[C@H]2OCC[C@H]21)S(=O)(=O)c1ccc2c(c1)OCO2` [Compound 203, (3R,3aS,6aR)hexahydrofuro[2,3-b]furan-3-yl (1S,2R)-3-[(1,3-benzodioxol-5-ylsulfonyl)(isobutyl)amino]-2-hydroxy-1-[4-([3-phenylpropyl]oxy)benzyl]propylcarbamate]: the IC50 (as a rule, the concentration that inhibits the measured activity by half) in the assay with HIV-1 (strain IIIB) (setting [3]) is less than 0.001 µM; in assay [1] (read-out: D545701-14 mutant - IC50, D545701-14 multi protease inhibitor resistant virus, MT4 cells) it was 0.01 to 0.1 µM; in assay [2] (setting [4]), 0.001 to 0.01 µM.
In the case of `CC(C)CN(C[C@@H](O)[C@H](Cc1ccc(OCCCC(F)(F)F)cc1)NC(=O)O[C@H]1CO[C@H]2OCC[C@H]21)S(=O)(=O)c1ccc2c(c1)OCCO2` [Compound 204, (3R,3aS,6aR)-hexahydrofuro[2,3-b]furan-3-yl (1S,2R)-3-[(2,3-dihydro-1,4-benzodioxin-6-ylsulfonyl)(isobutyl)amino]-2-hydroxy-1-[4-(4,4,4-trifluorobutoxy)benzyl]propylcarbamate], the IC50 (in the assay with HIV-1 (strain IIIB) (setting [3]); in assay [1] (setting [5]); in assay [2] (setting [4])) was 0.001 to 0.01 µM each time.
Regarding `CC(C)CN(C[C@@H](O)[C@H](Cc1ccc(OCCc2ccc(F)cc2)cc1)NC(=O)O[C@H]1CO[C@H]2OCC[C@H]21)S(=O)(=O)c1ccc2c(c1)OCO2` [Compound 205], the IC50 was in the range of 0.001 to 0.01 µM in the assay on HIV-1 (strain IIIB), 0.01 to 0.1 µM in assay [1] (setting [6]) and 0.01 to 0.1 µM in assay [2] (setting [7]).
For `COc1ccc(CCOc2ccc(C[C@H](NC(=O)O[C@H]3CO[C@H]4OCC[C@H]43)[C@H](O)CN(CC(C)C)S(=O)(=O)c3ccc4c(c3)OCO4)cc2)cc1` [Compound 206], the IC50 lay in the range of 0.001 to 0.01 µM in the assay on HIV-1 (strain IIIB), 0.01 to 0.1 µM in assay [1] (setting [6]) and 0.01 to 0.1 µM in assay [2] (setting [7]).
Consider `CC(C)CN(C[C@@H](O)[C@H](Cc1ccc(OCCNC(=O)OC(C)(C)C)cc1)NC(=O)O[C@H]1CO[C@H]2OCC[C@H]21)S(=O)(=O)c1ccc2c(c1)OCO2` [Compound 219, (3R,3aS,6aR)-hexahydrofuro[2,3-b]furan-3-yl (1S,2R)-3-[(1,3-benzodioxol-5-ylsulfonyl)(isobutyl)amino]-1-(4-{2-[(tert-butoxycarbonyl)amino]ethoxy}benzyl)-2-hydroxypropylcarbamate], for which the concentration for half-maximal inhibition (IC50) (in the assay on HIV-1 (strain IIIB) (setting [3]); in assay [1] (setting [5]); in assay [2] (setting [4])) was 0.001 to 0.01 µM in each case.
With `CC(C)CN(C[C@@H](O)[C@H](Cc1ccc(OCCCNC(=O)OC(C)(C)C)cc1)NC(=O)O[C@H]1CO[C@H]2OCC[C@H]21)S(=O)(=O)c1ccc2c(c1)OCO2` [Compound 221, (3R,3aS,6aR)-hexahydrofuro[2,3-b]furan-3-yl (1S,2R)-3-[(1,3-benzodioxol-5-ylsulfonyl)(isobutyl)amino]-1-(4-{3-[(tert-butoxycarbonyl)amino]propoxy}benzyl)-2-hydroxypropylcarbamate], the IC50 (in the assay with HIV-1 (strain IIIB) (setting [3]); in assay [1] (setting [5]); in assay [2] (setting [4])) was 0.001 to 0.01 µM throughout.
As to `CC(C)CN(C[C@@H](O)[C@H](Cc1ccc(OCCCCNC(=O)OC(C)(C)C)cc1)NC(=O)O[C@H]1CO[C@H]2OCC[C@H]21)S(=O)(=O)c1ccc2c(c1)OCO2` [Compound 223, (3R,3aS,6aR)-hexahydrofuro[2,3-b]furan-3-yl (1S,2R)-3-(1,3-benzodioxol-5-ylsulfonyl)(isobutyl)amino-1-(4-{4-[(tert-butoxycarbonyl)amino]butoxy}benzyl)-2-hydroxypropylcarbamate], the IC50 (with HIV-1 (strain IIIB) (setting [3]); in assay [1] (setting [5]); in assay [2] (setting [4])) was 0.001 to 0.01 µM each time.
